Measured values reported in article PMC4971421, “Redox-Dependent Modulation of T-Type Ca^2+ Channels in Sensory Neurons Contributes to Acute Anti-Nociceptive Effect of Substance P” (Antioxidants & Redox Signaling, 2016).

Tests used:
rat hind paw [1] = assay: BK-induced nocifensive behavior, pre-injection protocol; assay type: in vivo; conditions: for BK-induced nociception: 5 min before BK 10 nmol/site
Method: Sprague–Dawley rats (body weight, 170–180 g) were grouped randomly and allowed to acclimate for at least 30 min in a transparent observation chamber before the experiment. Animals received a 50-μl intraplantar injection of ST101 (0.001–10 nmol/site), BK (10 nmol/site), RTG (1–10 nmol/site), Z944 (0.05–5 nmol/site), SP (0.5–5 nmol/site), or saline, respectively, into the right hind paw. For evaluation of the acute “spontaneous” pain, animals were video-recorded for 30 min after the injection and protective (“nocifensive”) behavior was analyzed as time spent licking, biting, lifting, and flinching the injected paw. The analyses were performed by an observer who was unaware of treatment allocations. In the pre-injection experiments, the right hind paw of the animal received a pre-injection of 50 μl Z944 (0.05–0.5 nmol/site), RTG (1–10 nmol/site), SP (0.5 nmol/site), Z944 (0.05–0.5 nmol/site)+RTG (1 nmol/site), or saline; 5 min later, on the same paw, the animal received a further 50-μl injection of BK (10 nmol/site) together with the pre-injection drug mix. Nocifensive behavior was analyzed as described earlier.
The in vivo CaV3.2 knock-down was performed as described earlier ([3]) by using the same ODN sequences that were synthesized by SBS Genetech. AS ODNs had the following sequence: […]. The mismatch ODNs of the following sequence were used as a negative control: […]. The mismatch ODN was not complementary to any known nucleotide sequence. ODNs were reconstituted in saline before injection. ODNs (12.5 μg/rat in 10 μl of saline) or saline were injected intrathecally (i.t.) between the L5 and L6 dorsal spinous processes as described earlier ([3], [42]) under isoflurane anesthesia. The treatment was repeated twice daily for 4 days. The pain tests were performed on the next day after the last injection. After behavioral testing, animals were humanly sacrificed; lumbar DRGs were extracted and analyzed for the knock-down efficiency by comparing the Cacna1h mRNA levels in lumbar (L4 to L6) DRGs of the saline-injected, mismatch ODN-injected, and AS ODN-injected animals using RT-PCR. The same Cacna1h and Gapdh primers as in siRNA experiments were used for RT-PCR.

[2] = system: T-type Ca^2+ channels (LVA Ca^2+ current) in DRG neurons; assay: LVA (T-type) Ca2+ current, whole-cell patch clamp, cultured small-diameter DRG neurons; assay type: cell-based, rat; conditions: 1 μM; mean ± SEM, n = 7; SEM
Method: DRG neurons from adult male Sprague–Dawley rats (170–180 g) were dissociated as previously described ([13], [29]) and cultured in DMEM supplemented with GlutaMax I, 10% fetal calf serum, penicillin (50 U/ml), and streptomycin (50 μg/ml) on glass coverslips that were coated with poly-D-lysine for 2–5 days in a humidified incubator (37°C, 5% CO2). No growth factors were added to the culture media. HEK 293 cells were cultured in the same DMEM media; cells were passaged every 2 days. Human NK1 receptor (GenBank accession No. AY462098) complementary DNA (cDNA) was from the Missouri Science and Technology cDNA Resource Center. WtCaV3.1 (GenBank accession No. AF027984), wtCaV3.2 (GenBank accession No. AF051946), CaV3.1Q172H, and CaV3.2H191Q were kindly provided by Dr E. Perez-Reyes (University of Virginia). HEK293 cells were transfected using Lipofectamine 2000 (Invitrogen) according to the manufacturer's instructions. ST101 was synthesized in house; Z944 was from Toronto Research Chemicals; PTX was from Enzo Life Science; and FluoZin-3AM was from Life Technologies. All other chemicals were from Sigma.
All recordings were made using Multiclamp 700B amplifier in combination with pCLAMP 10.4 software (Molecular Devices). Voltage-clamp recordings from DRG neurons were made using whole-cell patch clamp. The standard bath solution contained the following (in mM): 150 TEA-Cl; 2.5 CsCl; 2.5 CaCl2; 10 HEPES; 0.5 MgCl2; and 10 glucose (pH 7.4 adjusted with CsOH). The standard pipette solution contained the following (in mM): 110 CsCl; 3 MgCl2; 10 EGTA; 10 HEPES; 3 Mg-ATP; and 0.6 GTP (pH 7.4 adjusted with CsOH). The access resistance was typically within 4–8 MΩ. T-type calcium currents (LVA) were measured by 50 ms square voltage pulses to −40 mV from a holding potential of −90 mV. HVA currents were measured by 200 ms square voltage pulses to 0 mV from a holding potential of −90 mV.
where y is the current inhibition; A1 and A2 are the maximum and minimum effects, respectively; x is the S9SP concentration; and nH is the Hill coefficient.

hERG channels = conditions: 1 μM; cited from earlier work
Nav1.5 = conditions: 1 μM; cited from earlier work
rat hind paw [3] = assay: Cotton swab test (gentle touch); assay type: in vivo; conditions: 50 μl; 0.5 nmol/site; 8 min after injection
Method: For measurement of sensitivity to gentle touch and mechanical hyperalgesia, two methods were used. (i) Cotton swab test was performed as previously described ([53]). Briefly, rats were allowed to acclimate in a cage with a wire mesh bottom for at least 30 min and then were manually probed with a “cotton swab” pulled from a Q-tip (to approximately three times the original size). A swab was applied in a sweeping motion underneath the rats’ paws, and the withdrawal responses were recorded. Five sweeps were applied in each test, with at least 10 s between each sweep; withdrawal score was calculated as a percentage of positive responses. (ii) The von Frey test was performed using a calibrated range of filaments with different bending forces (2, 4, 6, 8, 10, and 15 g; Stoelting Co.). A single filament was applied perpendicularly to the plantar surface of the hind paw for five times, with an interval of 5 s, and it was scored for withdrawal responses. Each force was probed five times, the number of withdrawals out of five trials was counted, and the percentage of withdrawal responses was calculated. Both types of assays were performed 8 min after the hind-paw drug injection.

For `CC(C)(C)NC(=O)CN1CCC(CNC(=O)c2cc(F)cc(Cl)c2)CC1` [Z944, N-[[1-[2-(tert-butylamino)-2-oxoethyl]piperidin-4-yl]methyl]-3-chloro-5-fluorobenzamide], the “nocifensive behavior produced by hind-paw BK injection in saline- and mismatch ODN-injected animals” value (rat hind paw [1]; 0.5 nmol/site, BK 10 nmol/site) was “still significantly attenuated”, the BK-induced nociception (rat hind paw [1]; pre-injection 0.05 nmol/site) was “not at 0.05 nmol/site” and the BK-induced nociception (rat hind paw [1]; pre-injection 0.5 nmol/site) was “significantly attenuated”. The “inhibition of LVA current” value [2] was 71.4% ± 2.7%, the “effect on hERG channels” value (hERG channels) was “no significant effect” and the “effect on Nav1.5” value (Nav1.5) was “no significant effect”. For the same compound, the “sensitivity to light touch, cotton swab assay” value (rat hind paw [3]) was “produced a similar effect”.
